Data on 21 compounds can be found in patent publication US20260265265A1, “NOVEL BENZIMIDAZOLONE DERIVATIVE COMPOUND AS AUTOTAXIN INHIBITOR” (LG CHEM, LTD., priority 2023, published 2026).

As a reminder, the IC50 is the concentration that gives 50% inhibition.

This assay concerns the target T1, Recombinant Human ENPP-2/Autotaxin (Homo sapiens, UniProt Q13822).
T1 construct: purchased R&D systems 5255-EN
Description: LysoPLD activity measurement (autotaxin enzyme inhibition, choline release, TOOS reagent). It is filed as biochemical. As to conditions: LysoPLD inhibitory activity; substrate 14:0 LysoPC; absorbance at 555 nm. The gist of the method: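 Autotaxin lysoPLD activity was read as choline released from 14:0 LysoPC, detected by TOOS reagent absorbance. Compound was preincubated 30 min, then substrate diluted to 300 μM was added and the reaction ran 90 minutes at 37° C. Controls contained 1% DMSO.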
Take `O=C(O)c1cccc(Cn2c(=O)n(-c3cnn(CC4CCC4)c3)c3cc(Cl)ccc32)c1` [Example 91, 3-((5-chloro-3-(1-cyclobutylmethyl-1H-pyrazol-4-yl)-2-oxo-2,3-dihydro-1H-benzo[d]imidazol-1-yl)methyl)benzoic acid]: the IC50 was in the range of 100 to 1000 nM. Consider `CCCn1cc(-n2c(=O)n(Cc3cccc(C(=O)O)c3F)c3ccc(Cl)c(F)c32)cn1` [Example 92, 3-((5-chloro-4-fluoro-2-oxo-3-(1-propyl-1H-pyrazol-4-yl)-2,3-dihydro-1H-benzo[d]imidazol-1-yl)methyl)-2-fluorobenzoic acid], for which the half-maximal inhibitory concentration (IC50) lay in the range of 10 to 100 nM. `O=C(O)c1cccc(C2(n3c(=O)n(-c4ccc(C(=O)N5CC6(CCOCC6)C5)cc4)c4cc(Cl)ccc43)CC2)c1` [Example 93, 3-(1-(3-(4-(7-oxa-2-azaspiro[3.5]nonane-2-carbonyl)phenyl)-5-chloro-2-oxo-2,3-dihydro-1H-benzo[d]imidazol-1-yl)cyclopropyl)benzoic acid]: the IC50 is less than 10 nM. As for `O=C(O)c1cccc(Cn2c(=O)n(-c3ccc(N4CCC(F)(F)CC4)cc3)c3cc(Cl)ccc32)c1` [Example 94, 3-((5-chloro-3-(4-(4,4-difluoropiperidin-1-yl)phenyl)-2-oxo-2,3-dihydro-1H-benzo[d]imidazol-1-yl)methyl)benzoic acid], the IC50 fell in the range of 10 to 100 nM.

Consider `O=C(O)c1cccc(Cn2c(=O)n(-c3ccc(N4CCN(C(=O)C5CC5)CC4)cc3)c3cc(Cl)ccc32)c1` [Example 95, 3-((5-chloro-3-(4-(4-(cyclopropanecarbonyl)piperazin-1-yl)phenyl)-2-oxo-2,3-dihydro-1H-benzo[d]imidazol-1-yl)methyl)benzoic acid], for which the IC50 lay in the range of 10 to 100 nM.

Turning to `CC(C)OC(=O)N1CCN(c2ccc(-n3c(=O)n(Cc4cccc(C(=O)O)c4)c4ccc(Cl)cc43)cc2)CC1` [Example 96, 3-((5-chloro-3-(4-(4-(isopropoxycarbonyl)piperazin-1-yl)phenyl)-2-oxo-2,3-dihydro-1H-benzo[d]imidazol-1-yl)methyl)benzoic acid], the IC50 fell in the range of 10 to 100 nM. For `CN1CCN(c2ccc(-n3c(=O)n(Cc4cccc(C(=O)O)c4)c4ccc(Cl)cc43)cc2)CC1` [Example 97, 3-((5-chloro-3-(4-(4-methylpiperazin-1-yl)phenyl)-2-oxo-2,3-dihydro-1H-benzo[d]imidazol-1-yl)methyl)benzoic acid], the IC50 was 100 to 1000 nM. Regarding `O=C(O)c1cccc(C2(n3c(=O)n(-c4ccc(C5CCCCC5)cc4)c4cc(Cl)ccc43)CC2)c1` [Example 98, 3-(1-(5-chloro-3-(4-cyclohexylphenyl)-2-oxo-2,3-dihydro-1H-benzo[d]imidazol-1-yl)cyclopropyl)benzoic acid], the IC50 was in the range of 100 to 1000 nM.

On to `O=C(O)c1cccc(C2(n3c(=O)n(-c4ccc(C5CCOCC5)cc4)c4cc(Cl)ccc43)CC2)c1` [Example 99, 3-(1-(5-chloro-2-oxo-3-(4-(tetrahydro-2H-pyran-4-yl)phenyl)-2,3-dihydro-1H-benzo[d]imidazol-1-yl)cyclopropyl)benzoic acid], for which the IC50 is less than 10 nM.

In the case of `O=C(O)c1cccc(Cn2c(=O)n(-c3ccc(C4CCN(C(=O)C5CC5)CC4)cc3)c3cc(Cl)ccc32)c1` [Example 100, 3-((5-chloro-3-(4-(1-(cyclopropanecarbonyl)piperidin-4-yl)phenyl)-2-oxo-2,3-dihydro-1H-benzo[d]imidazol-1-yl)methyl)benzoic acid], the half-maximal inhibitory concentration (IC50) fell in the range of 10 to 100 nM.

`O=C(O)c1cccc(Cn2c(=O)n(-c3ccc(C4CCN(C(=O)C5CCC5)CC4)cc3)c3cc(Cl)ccc32)c1` [Example 101, 3-((5-chloro-3-(4-(1-(cyclobutanecarbonyl)piperidin-4-yl)phenyl)-2-oxo-2,3-dihydro-1H-benzo[d]imidazol-1-yl)methyl)benzoic acid]: the IC50 is 100 to 1000 nM. Consider `CCC(=O)N1CCC(c2ccc(-n3c(=O)n(Cc4cccc(C(=O)O)c4)c4ccc(Cl)cc43)cc2)CC1` [Example 102, 3-((5-chloro-2-oxo-3-(4-(1-propionylpiperidin-4-yl)phenyl)-2,3-dihydro-1H-benzo[d]imidazol-1-yl)methyl)benzoic acid], for which the IC50 was in the range of 10 to 100 nM. Turning to `O=C(O)c1cccc(Cn2c(=O)n(-c3ccc(C4CCOCC4)cc3)c3cc(Cl)ccc32)c1` [Example 103, 3-((5-chloro-2-oxo-3-(4-(tetrahydro-2H-pyran-4-yl)phenyl)-2,3-dihydro-1H-benzo[d]imidazol-1-yl)methyl)benzoic acid], the IC50 lay within 10 to 100 nM. On to `O=C(O)c1cccc(Cn2c(=O)n(-c3ccc(C4=CCOCC4)cc3)c3cc(Cl)ccc32)c1` [Example 104, 3-((5-chloro-3-(4-(3,6-dihydro-2H-pyran-4-yl)phenyl)-2-oxo-2,3-dihydro-1H-benzo[d]imidazol-1-yl)methyl)benzoic acid], for which the IC50 is 10 to 100 nM. As to `O=C(O)c1cccc(Cn2c(=O)n(-c3ccc(N4CCC(F)(F)C4)cc3)c3c(F)c(Cl)ccc32)c1` [Example 105, 3-((5-chloro-3-(4-(3,3-difluoropyrrolidin-1-yl)phenyl)-4-fluoro-2-oxo-2,3-dihydro-1H-benzo[d]imidazol-1-yl)methyl)benzoic acid], the IC50 lay in the range of 100 to 1000 nM. For `O=C(O)c1cccc(C2(n3c(=O)n(-c4ccc(C5CCOCC5)cc4)c4cc(Cl)ccc43)CC2)c1F` [Example 106, 3-(1-(5-chloro-2-oxo-3-(4-(tetrahydro-2H-pyran-4-yl)phenyl)-2,3-dihydro-1H-benzo[d]imidazol-1-yl)cyclopropyl)-2-fluorobenzoic acid], the IC50 is less than 10 nM. Turning to `O=C(O)c1cccc(C2(n3c(=O)n(-c4ccc(C(=O)N5CC6(CCOCC6)C5)cc4)c4cc(Cl)ccc43)CC2)c1F` [Example 107, 3-(1-(3-(4-(7-oxa-2-azaspiro[3.5]nonane-2-carbonyl)phenyl)-5-chloro-2-oxo-2,3-dihydro-1H-benzo[d]imidazol-1-yl)cyclopropyl)-2-fluorobenzoic acid], the concentration for half-maximal inhibition (IC50) is less than 10 nM. Consider `O=C(O)c1cccc(Cn2c(=O)n(-c3ccc(C4CCOCC4)cc3)c3cc(Cl)ccc32)c1F` [Example 108, 3-((5-chloro-2-oxo-3-(4-(tetrahydro-2H-pyran-4-yl)phenyl)-2,3-dihydro-1H-benzo[d]imidazol-1-yl)methyl)-2-fluorobenzoic acid], for which the IC50 is 10 to 100 nM.

As for `O=C(O)c1cccc(Cn2c(=O)n(-c3ccc(C4=CCCCC4)cc3)c3cc(Cl)ccc32)c1` [Example 109, 3-((5-chloro-2-oxo-3-(2′,3′,4′,5′-tetrahydro-[1,1′-biphenyl]-4-yl)-2,3-dihydro-1H-benzo[d]imidazol-1-yl)methyl)benzoic acid], the 50% inhibitory concentration (IC50) was 100 to 1000 nM.

As to `O=C(O)c1cccc(Cn2c(=O)n(-c3ccc(C4=CCOC4)cc3)c3cc(Cl)ccc32)c1F` [Example 110, 3-((5-chloro-3-(4-(2,5-dihydrofuran-3-yl)phenyl)-2-oxo-2,3-dihydro-1H-benzo[d]imidazol-1-yl)methyl)-2-fluorobenzoic acid], the IC50 lay within 10 to 100 nM. On to `CC1CC=C(c2ccc(-n3c(=O)n(Cc4cccc(C(=O)O)c4F)c4ccc(Cl)cc43)cc2)CC1` (stereo not drawn) [Example 111, 3-((5-chloro-3-(4′-methyl-2′,3′,4′,5′-tetrahydro-′[1,1′-biphenyl]-4-yl)-2-oxo-2,3-dihydro-1H-benzo[d]imidazol-1-yl)methyl)-2-fluorobenzoic acid], for which the half-inhibitory concentration (IC50) was 100 to 1000 nM.
